Data from patent publication EP4603105A1, “PHARMACEUTICAL COMPOSITION CONTAINING CYCLIC COMPOUND HAVING SELECTIVE KRAS INHIBITORY EFFECT AGAINST HRAS AND NRAS” (CHUGAI SEIYAKU KABUSHIKI KAISHA, priority 2022, dated 2024).

Assays:
[1] = biological target: GDP-bound NRAS wild-type protein (Homo sapiens, UniProt P01111); test: Binding to NRAS by surface plasmon resonance (SPR), KD and KD ratio to KRAS; conditions: ratio of KD with respect to GDP-bound NRAS wild-type protein to KD with respect to KRAS
GDP-bound NRAS wild-type protein, sequence (P01111 whole entry): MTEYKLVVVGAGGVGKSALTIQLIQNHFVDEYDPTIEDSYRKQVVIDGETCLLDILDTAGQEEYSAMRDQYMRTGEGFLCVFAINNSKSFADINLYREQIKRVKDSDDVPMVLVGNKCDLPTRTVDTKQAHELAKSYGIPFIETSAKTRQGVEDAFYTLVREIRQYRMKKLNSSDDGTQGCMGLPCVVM
In short: (§1)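 Single-cycle kinetics on GDP-loaded biotin-Avi RAS captured to ~100–300 RU; 75 s ascending injections, 100 µL/min, 30°C. HBS pH 7.4 + 10 mM MgCl2/10 µM GDP/4% DMSO. 1:1 fit, KD.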

[2] = biological target: HRAS wild-type protein (Homo sapiens, UniProt P01112); test: Binding to HRAS by surface plasmon resonance (SPR), KD and KD ratio to KRAS; conditions: ratio of KD with respect to HRAS wild-type protein to KD with respect to KRAS
HRAS wild-type protein, sequence (P01112 whole entry): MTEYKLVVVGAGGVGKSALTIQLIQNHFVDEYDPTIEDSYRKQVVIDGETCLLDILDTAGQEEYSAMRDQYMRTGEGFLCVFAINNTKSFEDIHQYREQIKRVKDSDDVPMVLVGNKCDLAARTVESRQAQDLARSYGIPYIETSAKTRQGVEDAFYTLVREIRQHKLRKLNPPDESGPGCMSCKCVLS
In short: as §1

[3] = biological target: GDP-bound KRAS wild-type protein (Homo sapiens, UniProt P01116); test: Binding to KRAS by surface plasmon resonance (SPR), dissociation constant KD; conditions: Single Cycle Kinetics, 1:1 binding model
GDP-bound KRAS wild-type protein, sequence (P01116 1-188 isoform P01116-2): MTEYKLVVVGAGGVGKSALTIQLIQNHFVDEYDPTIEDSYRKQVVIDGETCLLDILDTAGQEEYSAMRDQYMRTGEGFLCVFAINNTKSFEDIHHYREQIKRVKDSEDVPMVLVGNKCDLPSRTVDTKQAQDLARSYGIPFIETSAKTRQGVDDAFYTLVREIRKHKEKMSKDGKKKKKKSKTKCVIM
In short: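 Recombinant RAS proteins bearing a biotinylated Avi tag and loaded with GDP served as the captured ligand, recaptured fresh every cycle. Binding responses were referenced to an uncoated surface and a buffer-only blank cycle. Dissociation constants were obtained by 1:1 model fitting at 30°C.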

[4] = test system: human lung cancer strain NCI-H441; test: NCI-H441 cell proliferation inhibitory activity (CellTiter-Glo, 4 days); format: cell-based; conditions: 50% proliferation inhibitory concentration, four days, read-out: NCl-H441 IC50
Procedure: A test compound was dispensed into a U-bottom 384-well plate as 40 nL serially diluted dimethyl sulfoxide solutions using a liquid handler Echo (LABCYTE). […] This cell suspension was dispensed in an amount of 40 µL per well into a plate containing the test compound, and cultured at 37°C in a 5% carbon dioxide gas incubator. Four days later, 20 µL of CellTiter-Glo (registered trademark) (Promega) was added to each well and […] was measured. […]

Compound	NRAS /KRAS [1]	HRAS /KRAS [2]	Kd [3]	IC50 [4]
CC[C@H](C)[C@@H]1NC(=O)[C@H](CC)N(C)C(=O)C[C@@H](C(=O)N(C)C)N(C)C(=O)[C@H](C2CCCC2)N(C)C(=O)C2(CCC2)NC(=O)[C@H](C)N(C)C(=O)[C@H](CCc2cc(F)c(C(F)(F)F)c(F)c2)NC(=O)CN(C)C(=O)[C@H](Cc2ccc(C(F)(F)F)cc2)N2CC/C=C\C[C@@H](C2=O)N(C)C(=O)CN(C)C1=O [PP1146]	A (a compound having 10 or more and less than 20 is denoted as A)	B (a compound having 3 or more and less than 10 is denoted as B)	0.32 nM	202 nM
CCCC[C@H]1C(=O)NC2(CCC2)C(=O)N(C)[C@@H](C2CCCC2)C(=O)N(C)[C@H](C(=O)N(C)C)CC(=O)N(C)[C@@H](CC)C(=O)N[C@@H]([C@@H](C)CC)C(=O)N(C)CC(=O)N(C)[C@H]2C/C=C\CCN(C2=O)[C@@H](Cc2ccc(C(F)(F)F)cc2)C(=O)N(C)CC(=O)N[C@@H](CCc2cc(F)c(C(F)(F)F)c(F)c2)C(=O)N1C [PP1150]	AA (a compound having 20 or more is denoted as AA)	A (a compound having 10 or more and less than 20 is denoted as A)	0.17 nM	42.7 nM
CCO[C@@H]1C[C@H]2C(=O)NC3(CCC3)C(=O)N(C)[C@@H](C3CCCC3)C(=O)N(C)[C@H](C(=O)N(C)C)CC(=O)N(C)[C@@H](Cc3ccccc3C#N)C(=O)N[C@@H]([C@@H](C)CC)C(=O)N(C)CC(=O)N(C)[C@H]3CCCCCN(C3=O)[C@@H](Cc3ccc(F)cc3)C(=O)N(C)CC(=O)N[C@@H](CCc3cc(F)c(C(F)(F)F)c(F)c3)C(=O)N2C1 [PP1155]	B (a compound having 3 or more and less than 10 is denoted as B)	B (a compound having 3 or more and less than 10 is denoted as B)	0.15 nM	73.1 nM
CCO[C@@H]1C[C@H]2C(=O)NC3(CCC3)C(=O)N(C)[C@@H](C3CCCC3)C(=O)N(C)[C@H](C(=O)N(C)C)CC(=O)N(C)[C@@H](Cc3cccc(C#N)c3)C(=O)N[C@@H]([C@@H](C)CC)C(=O)N(C)CC(=O)N(C)[C@H]3CCCCCN(C3=O)[C@@H](Cc3ccc(F)cc3)C(=O)N(C)CC(=O)N[C@@H](CCc3cc(F)c(C(F)(F)F)c(F)c3)C(=O)N2C1 [PP1156]	B (a compound having 3 or more and less than 10 is denoted as B)	B (a compound having 3 or more and less than 10 is denoted as B)	0.063 nM	33.7 nM
CCO[C@@H]1C[C@H]2C(=O)NC3(CCC3)C(=O)N(C)[C@@H](C3CCCC3)C(=O)N(C)[C@H](C(=O)N(C)C)CC(=O)N(C)[C@@H](Cc3ccc(C#N)cc3)C(=O)N[C@@H]([C@@H](C)CC)C(=O)N(C)CC(=O)N(C)[C@H]3CCCCCN(C3=O)[C@@H](Cc3ccc(F)cc3)C(=O)N(C)CC(=O)N[C@@H](CCc3cc(F)c(C(F)(F)F)c(F)c3)C(=O)N2C1 [PP1157]	B (a compound having 3 or more and less than 10 is denoted as B)	B (a compound having 3 or more and less than 10 is denoted as B)	0.061 nM	30.3 nM
CCO[C@@H]1C[C@H]2C(=O)NC3(CCC3)C(=O)N(C)[C@@H](C3CCCC3)C(=O)N(C)[C@H](C(=O)N(C)C)CC(=O)N(C)[C@@H](Cc3ccc(Cl)c(Cl)c3)C(=O)N[C@@H]([C@@H](C)CC)C(=O)N(C)CC(=O)N(C)[C@H]3CCCCCN(C3=O)[C@@H](Cc3ccc(F)cc3)C(=O)N(C)CC(=O)N[C@@H](CCc3cc(F)c(C(F)(F)F)c(F)c3)C(=O)N2C1 [PP1158]	B (a compound having 3 or more and less than 10 is denoted as B)	B (a compound having 3 or more and less than 10 is denoted as B)	0.18 nM	57.5 nM
CCCO[C@@H]1C[C@H]2C(=O)NC3(CCC3)C(=O)N(C)[C@@H](C3CCCC3)C(=O)N(C)[C@H](C(=O)N3CCOCC3)CC(=O)N(C)[C@@H](CC(C)C)C(=O)N[C@@H]([C@@H](C)CC)C(=O)N(C)CC(=O)N(C)[C@H]3CCCCN(C3=O)[C@@H](Cc3ccc(C(F)(F)F)cc3)C(=O)N(C)CC(=O)N[C@@H](CCc3cc(F)c(C(F)(F)F)c(F)c3)C(=O)N2C1 [PP1159]	C (A compound having a KD ratio of 0.1 or more and less than 3 is denoted as C)	B (a compound having 3 or more and less than 10 is denoted as B)	0.036 nM	13 nM
CC[C@H](C)[C@@H]1NC(=O)[C@H](CC(C)C)N(C)C(=O)C[C@@H](C(=O)N2CCOCC2)N(C)C(=O)[C@H](C2CCCC2)N(C)C(=O)C2(CCC2)NC(=O)[C@@H]2C[C@@H](OCC(C)C)CN2C(=O)[C@H](CCc2cc(F)c(C(F)(F)F)c(F)c2)NC(=O)CN(C)C(=O)[C@H](Cc2ccc(C(F)(F)F)cc2)N2CCCC[C@@H](C2=O)N(C)C(=O)CN(C)C1=O [PP1160]	B (a compound having 3 or more and less than 10 is denoted as B)	B (a compound having 3 or more and less than 10 is denoted as B)	0.032 nM	18.4 nM
CCO[C@@H]1C[C@H]2C(=O)NC3(CCC3)C(=O)N(C)[C@@H](C3CCCC3)C(=O)N(C)[C@H](C(=O)N3CCOCC3)CC(=O)N(C)[C@@H](Cc3ccsc3)C(=O)N[C@@H]([C@@H](C)CC)C(=O)N(C)CC(=O)N(C)[C@H]3CCCCCN(C3=O)[C@@H](Cc3ccc(C(F)(F)F)cc3)C(=O)N(C)CC(=O)N[C@@H](CCc3cc(F)c(C(F)(F)F)c(F)c3)C(=O)N2C1 [PP1164]	B (a compound having 3 or more and less than 10 is denoted as B)	B (a compound having 3 or more and less than 10 is denoted as B)	0.52 nM	95.9 nM
CCO[C@@H]1C[C@H]2C(=O)NC3(CCC3)C(=O)N(C)[C@@H](C3CCCC3)C(=O)N(C)[C@H](C(=O)N(C)C)CC(=O)N(C)[C@@H](Cc3cccs3)C(=O)N[C@@H]([C@@H](C)CC)C(=O)N(C)CC(=O)N(C)[C@H]3CCCCCN(C3=O)[C@@H](Cc3ccc(C(F)(F)F)cc3)C(=O)N(C)CC(=O)N[C@@H](CCc3cc(F)c(C(F)(F)F)c(F)c3)C(=O)N2C1 [PP1169]	B (a compound having 3 or more and less than 10 is denoted as B)	B (a compound having 3 or more and less than 10 is denoted as B)	0.32 nM	74 nM
CCO[C@@H]1C[C@H]2C(=O)NC3(CCC3)C(=O)N(C)[C@@H](C3CCCC3)C(=O)N(C)[C@H](C(=O)N(C)C)CC(=O)N(C)[C@@H](Cc3ccccc3C#N)C(=O)N[C@@H]([C@@H](C)CC)C(=O)N(C)CC(=O)N(C)[C@H]3CCCCCN(C3=O)[C@@H](Cc3ccc(C(F)(F)F)cc3)C(=O)N(C)CC(=O)N[C@@H](CCc3cc(F)c(C(F)(F)F)c(F)c3)C(=O)N2C1 [PP1171]	B (a compound having 3 or more and less than 10 is denoted as B)	B (a compound having 3 or more and less than 10 is denoted as B)	0.69 nM	118 nM
CCO[C@@H]1C[C@H]2C(=O)NC3(CCC3)C(=O)N(C)[C@@H](C3CCCC3)C(=O)N(C)[C@H](C(=O)N(C)C)CC(=O)N(C)[C@@H](Cc3cccc(C#N)c3)C(=O)N[C@@H]([C@@H](C)CC)C(=O)N(C)CC(=O)N(C)[C@H]3CCCCCN(C3=O)[C@@H](Cc3ccc(C(F)(F)F)cc3)C(=O)N(C)CC(=O)N[C@@H](CCc3cc(F)c(C(F)(F)F)c(F)c3)C(=O)N2C1 [PP1172]	B (a compound having 3 or more and less than 10 is denoted as B)	B (a compound having 3 or more and less than 10 is denoted as B)	0.17 nM	48.3 nM
CCO[C@@H]1C[C@H]2C(=O)NC3(CCC3)C(=O)N(C)[C@@H](C3CCCC3)C(=O)N(C)[C@H](C(=O)N(C)C)CC(=O)N(C)[C@@H](Cc3ccc(C#N)cc3)C(=O)N[C@@H]([C@@H](C)CC)C(=O)N(C)CC(=O)N(C)[C@H]3CCCCCN(C3=O)[C@@H](Cc3ccc(C(F)(F)F)cc3)C(=O)N(C)CC(=O)N[C@@H](CCc3cc(F)c(C(F)(F)F)c(F)c3)C(=O)N2C1 [PP1173]	B (a compound having 3 or more and less than 10 is denoted as B)	B (a compound having 3 or more and less than 10 is denoted as B)	0.18 nM	70.8 nM
CCO[C@@H]1C[C@H]2C(=O)NC3(CCC3)C(=O)N(C)[C@@H](C3CCCC3)C(=O)N(C)[C@H](C(=O)N(C)C)CC(=O)N(C)[C@@H](Cc3ccc(Cl)c(Cl)c3)C(=O)N[C@@H]([C@@H](C)CC)C(=O)N(C)CC(=O)N(C)[C@H]3CCCCCN(C3=O)[C@@H](Cc3ccc(C(F)(F)F)cc3)C(=O)N(C)CC(=O)N[C@@H](CCc3cc(F)c(C(F)(F)F)c(F)c3)C(=O)N2C1 [PP1174]	B (a compound having 3 or more and less than 10 is denoted as B)	B (a compound having 3 or more and less than 10 is denoted as B)	1 nM	85.2 nM
